From ChEMBL document CHEMBL1123652, “Optimization and in vivo evaluations of a series of small, potent, and specific renin inhibitors containing a novel Leu-Val replacement” (J Med Chem, 1987)

How the values were obtained:
Rattus norvegicus [1] = test: Percent radioactivity in excreta of rats 24 h following intravenous administration in feces; type: ADME, organism-based; settings: in vivo
Rattus norvegicus [2] = test: Percent radioactivity in excreta of rats 24 hr following intravenous administration in urine; type: ADME, organism-based; settings: in vivo
[3] = Percent of [3H]- histidine found in 24 hr urine samples after intraduodenal administration; type: ADME; settings: other
[4] = Percent of [3H]- histidine found in 24 hr urine samples after intravenous administration; type: ADME
[5] = Percent of compound found in 24 hr urine samples after intraduodenal administration; type: ADME; settings: read-out: Activity
[6] = Percent of compound found in 24 hr urine samples after, intravenous administration; type: ADME; settings: read-out: Activity
[7] = Percent of radiolabel found in 24 hr urine samples after intraduodenal administration; type: ADME; settings: other
[8] = Percent of radiolabel found in 24 hr urine samples after intravenous administration; type: ADME
Rattus norvegicus [9] = test: Percent radioactivity in excreta of rats 24 hr following intraduodenal administration of the compound in feces; type: ADME, organism-based; settings: in vivo, other
Rattus norvegicus [10] = test: Percent radioactivity in excreta of rats 24 hr following intraduodenal administration of the compound in urine; type: ADME, organism-based; settings: in vivo, other
Monkey [11] = test: Heart rate determined at dosage of 1.0 mg/kg in male cynomolgus monkey; type: functional, Cercopithecidae
Monkey [12] = test: Heart rate determined at dosage of 10 mg/kg in male cynomolgus monkey; type: functional, Cercopithecidae
Monkey [13] = test: Inhibition of Plasma renin activity was observed in male cynomolgus monkey at dose of 1.0 mg/kg; type: functional, Cercopithecidae
Monkey [14] = test: Inhibition of Plasma renin activity was observed in male cynomolgus monkey at dose of 10 mg/kg; type: functional, Cercopithecidae
Monkey [15] = test: Mean blood pressure was measured in salt depleted male cynomolgus monkey at dose of 1.0 mg/kg intravenously; type: functional, Cercopithecidae; settings: route intravenous
Monkey [16] = test: Mean blood pressure was measured in salt depleted male cynomolgus monkey at dose of 10 mg/kg intravenously; type: functional, Cercopithecidae; settings: route intravenous
Pepsin A (Sus scrofa) = Pepsin A (Sus scrofa) (UniProt P00791); test: Evaluated for the percentage of inhibition of porcine pepsin at E-5M concentration
Chain of Pepsin A (Sus scrofa) (P00791 60-385 limits assumed): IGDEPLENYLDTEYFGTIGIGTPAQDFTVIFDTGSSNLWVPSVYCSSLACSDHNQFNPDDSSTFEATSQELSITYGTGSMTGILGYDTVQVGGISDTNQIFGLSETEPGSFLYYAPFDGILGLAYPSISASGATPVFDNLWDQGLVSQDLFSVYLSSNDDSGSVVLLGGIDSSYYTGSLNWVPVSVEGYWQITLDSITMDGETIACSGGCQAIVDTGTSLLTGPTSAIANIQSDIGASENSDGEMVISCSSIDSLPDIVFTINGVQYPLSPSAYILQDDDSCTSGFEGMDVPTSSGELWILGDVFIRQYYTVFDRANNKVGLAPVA

Renin = molecular target: T1, Renin (Homo sapiens, UniProt P00797); test: Evaluated in vitro for inhibitory potency against renin.
T1 sequence (P00797 whole entry): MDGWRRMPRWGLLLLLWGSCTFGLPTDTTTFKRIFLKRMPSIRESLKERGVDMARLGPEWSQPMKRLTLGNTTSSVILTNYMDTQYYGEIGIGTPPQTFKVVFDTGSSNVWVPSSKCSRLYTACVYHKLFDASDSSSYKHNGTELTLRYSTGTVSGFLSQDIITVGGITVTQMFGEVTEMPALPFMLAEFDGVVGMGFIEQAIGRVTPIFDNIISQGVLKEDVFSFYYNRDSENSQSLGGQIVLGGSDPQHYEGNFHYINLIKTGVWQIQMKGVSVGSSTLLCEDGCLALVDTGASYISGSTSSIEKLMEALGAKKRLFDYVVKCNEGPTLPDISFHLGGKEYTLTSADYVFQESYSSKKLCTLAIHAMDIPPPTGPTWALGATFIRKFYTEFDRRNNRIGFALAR

Cathepsin D (Bos taurus) = molecular target: T2, Cathepsin D (Bos taurus) (UniProt P80209); test: Evaluated for the percentage of inhibition of bovine cathepsin D at E-5M concentration
T2 sequence (whole entry): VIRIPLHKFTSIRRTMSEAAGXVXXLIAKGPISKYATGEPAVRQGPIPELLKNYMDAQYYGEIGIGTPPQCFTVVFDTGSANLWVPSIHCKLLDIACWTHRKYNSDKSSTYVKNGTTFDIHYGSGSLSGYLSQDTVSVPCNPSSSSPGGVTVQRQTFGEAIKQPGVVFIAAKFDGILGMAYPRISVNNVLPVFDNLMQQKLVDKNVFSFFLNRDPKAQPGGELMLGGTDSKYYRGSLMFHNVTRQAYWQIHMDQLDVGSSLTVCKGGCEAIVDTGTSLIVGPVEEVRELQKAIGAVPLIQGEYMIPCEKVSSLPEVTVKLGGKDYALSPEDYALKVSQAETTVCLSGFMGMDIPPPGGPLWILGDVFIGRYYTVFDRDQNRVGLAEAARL

In the case of CC(C)(C)OC(=O)N[C@@H](Cc1ccccc1)C(=O)N[C@@H](Cc1c[nH]cn1)C(=O)N[C@@H](CC1CCCCC1)[C@@H](O)CS(=O)(=O)C1CCCCC1, the Activity (Rattus norvegicus [1]) is reported as 34.5%, the Activity (Rattus norvegicus [2]) is reported as 5% and the Activity [3] is reported as 70%. For the same compound, the Activity [4] was 30%, the dose excreted at 24 h [5] was 30% and the dose excreted at 24 h [6] was 70%. For the same compound, the Activity [7] was 1%, the Activity [8] was 5% and the Activity (Rattus norvegicus [9]) was 26.6%. It also gave an Activity (Rattus norvegicus [10]) of 0.9%, a Heart rate (Monkey [11]) of 140 beats min-1 and a Heart rate (Monkey [12]) of 197 beats min-1. The Activity (Monkey [13]) was 35.3 ng/mL/h, the Activity (Monkey [14]) was 107.7 ng/mL/h and the Mean blood pressure (Monkey [15]) was 68 mmHg. The Mean blood pressure (Monkey [16]) was 73 mmHg, the inhibition (Pepsin A (Sus scrofa)) was 0% and the IC50 (Renin) was 2.5 nM. It also gave an inhibition (Cathepsin D (Bos taurus)) of 0%.
